Experimental data reported in patent US7094803B2, “Biologically active raspailamide compounds” (Harbor Branch Oceanographic Institution, Inc., priority 2003, dated 2006).

System: A549 human lung adenocarcinoma
Test: Antiproliferative MTT assay, A549 human lung adenocarcinoma cell line
Format: cell-based
Details: A549 adherent cells, 72-h exposure, cytotoxicity
Experimental: Raspailamide A (I) and B (II) were analyzed as to their effect on the proliferation of A549 human lung adenocarcinoma and P388 murine leukemia cell lines. P388 cells were obtained from Dr. R. Camalier, National Cancer Institute, Bethesda, Md., and A549 cells were obtained from American Type Culture Collection, Rockville, Md.
All cell lines are maintained in Roswell Park Memorial Institute (RPMI) medium 1640 supplemented with 100 U/mL penicillin 100 μg/ml streptomycin, 60 μg/ml L-glutamine, 18 mM HEPES, 0.05 mg/mL gentamycin and 10% fetal bovine serum. Cell lines are cultured in plastic tissue culture flasks and kept in an incubator at 37° C. in humidified air containing 5% CO2. […]
A volume of 75 μl of warm growth media containing 5 mg/ml MTT is added to each well, cultures returned to the incubator, and left undisturbed for 3 hours. To spectrophotometrically quantitate formation of reduced formazan, plates are centrifuged (900×g, 5 minutes), culture fluids removed by aspiration, and 200 μl of acidified isopropanol (2 ml concentrated HCl/iter isopropanol) added per well. The absorbance of the resulting solutions is measured at 570 nm with a plate reader (Spectra II (Tecan Laboratories). […]
The two standard drug controls (indicated above) are included in each assay to monitor the drug sensitivity of each of the cell lines and IC50 values are determined for each drug-cell combination.

Structure (SMILES) | IC50
C=C/C=C/C(C)=C/C(C)C1CC(OC)CC(CC2OC(CC(C)/C=C/C(C)=C/CC(CC(O)CNC(=O)C(=C)OC)OC(N)=O)C(C)(O)CC2C)O1 (centres unmarked) [Raspailamide (II), Raspailamide B] | 0.018 ng/mL
C=C(OC)C(=O)NCC(O)CC(C/C=C(C)/C=C/C(C)CC1OC(CC2CC(OC)CC(C(C)/C=C(C)/C=C/C=C/C)O2)C(C)CC1(C)O)OC(N)=O (centres unmarked) [Raspailamide A (I), Raspailamide A] | 0.046 ng/mL
